Key:
Oct2 (slc22a2) [1] = molecular target: T1, Oct2 (slc22a2) (Danio rerio, UniProt Q7T2C0); test: radiolabelled uptake in Xenopus oocytes expressing zebrafish oct2 versus sham; type: cell-based
T1 construct: complete Danio rerio slc22a2 cDNA clone (zgc:64076; IRBOp991A024D; oct2)
T1 sequence (Q7T2C0 1-562): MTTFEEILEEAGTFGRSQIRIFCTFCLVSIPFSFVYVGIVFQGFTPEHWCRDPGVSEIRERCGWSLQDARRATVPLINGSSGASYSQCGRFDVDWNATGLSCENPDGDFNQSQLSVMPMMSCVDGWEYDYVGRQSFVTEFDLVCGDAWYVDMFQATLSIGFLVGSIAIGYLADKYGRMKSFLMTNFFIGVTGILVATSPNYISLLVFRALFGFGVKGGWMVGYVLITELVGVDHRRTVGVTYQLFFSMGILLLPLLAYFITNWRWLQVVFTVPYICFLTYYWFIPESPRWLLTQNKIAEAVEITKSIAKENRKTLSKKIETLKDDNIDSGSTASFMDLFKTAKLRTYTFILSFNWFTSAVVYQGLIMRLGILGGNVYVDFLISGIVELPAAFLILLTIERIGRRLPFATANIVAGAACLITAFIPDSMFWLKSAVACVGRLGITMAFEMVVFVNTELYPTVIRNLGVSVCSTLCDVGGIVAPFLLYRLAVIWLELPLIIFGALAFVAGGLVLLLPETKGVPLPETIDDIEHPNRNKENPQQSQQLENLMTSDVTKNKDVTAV

Oct2 (slc22a2) [2] = molecular target: T1, Oct2 (slc22a2); test: inhibition of […] TEA uptake at […] in Xenopus oocytes expressing zebrafish oct2; type: cell-based
[3] = substrate: CNC(=C[N+](=O)[O-])NCCSCc1ccc(CN(C)C)o1; test: cells, lysate or membranes
[4] = substrate: CC(C)NCC(O)COc1cccc2ccccc12; test: cells, lysate or membranes

In the case of `CC[N+](CC)(CC)CC` [TEA, tetraethylammonium], the “radiolabelled uptake in Xenopus oocytes expressing zebrafish oct2 versus sham” value (Oct2 (slc22a2) [1]) is reported as “zebrafish oct2 when expressed in Xenopus oocytes can facilitate the transport of ranitidine, propranolol, and TEA”.

In the case of `NC12CC3CC(CC(C3)C1)C2` [amantadine], the “inhibition of 200 μM TEA uptake at 2 mM in Xenopus oocytes expressing zebrafish” value (Oct2 (slc22a2) [2]) is reported as “Uptake of tetraethylammonium (TEA) was inhibited by propranolol, amantadine, and cimetidine”.

B1: Oct2 (slc22a2) (Danio rerio) (protein)
chain: MTTFEEILEEAGTFGRSQIRIFCTFCLVSIPFSFVYVGIVFQGFTPEHWCRDPGVSEIRERCGWSLQDARRATVPLINGSSGASYSQCGRFDVDWNATGLSCENPDGDFNQSQLSVMPMMSCVDGWEYDYVGRQSFVTEFDLVCGDAWYVDMFQATLSIGFLVGSIAIGYLADKYGRMKSFLMTNFFIGVTGILVATSPNYISLLVFRALFGFGVKGGWMVGYVLITELVGVDHRRTVGVTYQLFFSMGILLLPLLAYFITNWRWLQVVFTVPYICFLTYYWFIPESPRWLLTQNKIAEAVEITKSIAKENRKTLSKKIETLKDDNIDSGSTASFMDLFKTAKLRTYTFILSFNWFTSAVVYQGLIMRLGILGGNVYVDFLISGIVELPAAFLILLTIERIGRRLPFATANIVAGAACLITAFIPDSMFWLKSAVACVGRLGITMAFEMVVFVNTELYPTVIRNLGVSVCSTLCDVGGIVAPFLLYRLAVIWLELPLIIFGALAFVAGGLVLLLPETKGVPLPETIDDIEHPNRNKENPQQSQQLENLMTSDVTKNKDVTAV
In the case of B1, the Km [3] is reported as 246.1 µM and the Km [4] is reported as 408.9 µM.

Reference: PMC9827845, “Active Pharmaceutical Ingredient Uptake by Zebrafish (Danio rerio) Oct2 (slc22a2) Transporter Expressed in Xenopus laevis Oocytes” (Environmental Toxicology and Chemistry, 2022)
